As a reminder, the IC50 is the concentration that inhibits the measured activity by half. Low readings indicate inhibition by little substance, high ones a need for much substance. As a reminder, the Papp A→B is how fast a substance crosses the layer from the apical side.

The test system of one data set is NF-κB pathway. Briefly: TNF-α assay in IFN-γ-differentiated, LPS-stimulated THP-1 cells (ELISA). It counts as cell-based. The note with it: Homo sapiens, 50 ng/mL LPS, 3 hours. An outline of the steps: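 THP-1 cells differentiated with 25 ng/mL IFN-γ for 24 h, then preincubated 30 min at 37 °C with compound (1:3.16 serial dilutions) in serum-free medium. Stimulated with 50 ng/mL LPS for 3 h; supernatant assayed by human TNF-α ELISA. IC50 from four-parameter logistic fit of % inhibition.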
For orientation: In an ELISA, binding on a coated surface is turned into a signal by an enzyme label.

The next data set has as its target T1, MDR1 (P-gp) (Homo sapiens, UniProt P08183).
T1 construct: expressed in transfected cells; host or cells: Madin-Darby Canine Kidney (MDCK) cells
The data set can be described thus: MDCK-MDR1 assay (apparent permeability and efflux ratio). It counts as in vitro ADME. To be noted: dog; for efflux ratio at 60 min, 1 µM: pH 7.4, MDCK-MDR1, P-gp mediated efflux ratio, read-out: MDR1 ER; for Papp A→B at 60 min, 1 µM: MDCK-MDR1 monolayer, apical to basolateral, pH 7.4, 60 minutes. As to the method: Madine-Darby Canine Kidney (MDCK) cells transfected with Multidrug resistance protein 1 (MDR1) are maintained in accordance with the provider's instructions in Dulbecco's Modified Eagle media (DMEM, Fisher Scientific Cat #10569044). DMEM is supplemented with 10% heat inactivated fetal bovine serum (Gibco Cat #16000-044), Penicillin-Streptomycin (100 units/mL) (Gibco Cat #15140122) and an inducer of P-gp, colchicine (200 nM) (Sigma Cat #C9754). The cells are seeded onto the apical side of HTS-Transwell-96 Plates (0.4 μm pore size, Corning Cat #3381) at a density of 6.25×10^3 cells per well with 75 μL and 250 μL of DMEM media in apical and basolateral wells, respectively, and are incubated at 37° C./5% CO2. Fresh DMEM media is exchanged in the apical and basolateral compartments after 72 hours and cells are allowed to grow into a monolayer for 144 hours before beginning the experimental incubation. Incubations are performed in Hanks' Balanced Salt Solution (HBSS, Fisher Scientific Cat #14025134) at pH 7.4 with 1% Bovine Serum Albumin (Sigma, Cat #A9418) and 10 mM HEPES (Fisher Scientific, Cat #15630080). DMEM media is removed and cells are rinsed with warm (37° C.) HBSS. HBSS with test compound at 1p M substrate concentration (0.1% v/v DMSO) is added to either the apical or basolateral compartment (75 μL or 250 μL, respectively) and blank HBSS buffer is added to the compartment which lacks test compound in singlicate. The cells are incubated for 60 minutes at 37° C./5% CO2. At the end of the incubation period, 50 μL of sample is removed from each receiver compartment and diluted into 150 μL of acetonitrile (Fisher Scientific, Cat #A996SK4)+0.1% formic acid (Sigma, Cat #F0507). The samples are centrifuged at 2000 rcf for 10 minutes at 4° C., after which 100 μL of supernatant is transferred to a new microplate and diluted with 100 μL of HPLC grade water (Fisher Scientific, Cat #W64). Samples are analyzed using a triple quadrupole mass spectrometer API-5500QTrap (ABSciex, Serial No. AU23291006) along with associated autosampler and high performance liquid chromatography pump instrumentation optimized for the detection of test articles through a Kinetix 2.1×50 mm C18 100 Å column (Phenomenex, Cat #00B-4605-AN).
Apparent permeability (Papp) values and efflux ratio are calculated using the following equations: […]

The target of another data set is NLRP3 inflammasome (Homo sapiens, UniProt Q96P20). The data set can be described thus: IL-1β assay in IFN-γ-differentiated, LPS-primed, ATP-activated THP-1 cells (ELISA). The note with it: 50 ng/mL LPS priming, 2.5 mM ATP activation, 2 hours. In kind it is cell-based. An outline of the steps: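 Supernatant IL-1β is quantified by ELISA after 2 h of 2.5 mM ATP stimulation at 37 °C, with IC50 taken from a four-parameter fit of % inhibition. Before this, THP-1 macrophages (25 ng/mL IFN-γ, 24 h) were LPS-primed (50 ng/mL, 24 h, no FBS) and exposed to serially diluted compound for 30 min.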
Sequence of NLRP3 inflammasome (Q96P20 whole entry): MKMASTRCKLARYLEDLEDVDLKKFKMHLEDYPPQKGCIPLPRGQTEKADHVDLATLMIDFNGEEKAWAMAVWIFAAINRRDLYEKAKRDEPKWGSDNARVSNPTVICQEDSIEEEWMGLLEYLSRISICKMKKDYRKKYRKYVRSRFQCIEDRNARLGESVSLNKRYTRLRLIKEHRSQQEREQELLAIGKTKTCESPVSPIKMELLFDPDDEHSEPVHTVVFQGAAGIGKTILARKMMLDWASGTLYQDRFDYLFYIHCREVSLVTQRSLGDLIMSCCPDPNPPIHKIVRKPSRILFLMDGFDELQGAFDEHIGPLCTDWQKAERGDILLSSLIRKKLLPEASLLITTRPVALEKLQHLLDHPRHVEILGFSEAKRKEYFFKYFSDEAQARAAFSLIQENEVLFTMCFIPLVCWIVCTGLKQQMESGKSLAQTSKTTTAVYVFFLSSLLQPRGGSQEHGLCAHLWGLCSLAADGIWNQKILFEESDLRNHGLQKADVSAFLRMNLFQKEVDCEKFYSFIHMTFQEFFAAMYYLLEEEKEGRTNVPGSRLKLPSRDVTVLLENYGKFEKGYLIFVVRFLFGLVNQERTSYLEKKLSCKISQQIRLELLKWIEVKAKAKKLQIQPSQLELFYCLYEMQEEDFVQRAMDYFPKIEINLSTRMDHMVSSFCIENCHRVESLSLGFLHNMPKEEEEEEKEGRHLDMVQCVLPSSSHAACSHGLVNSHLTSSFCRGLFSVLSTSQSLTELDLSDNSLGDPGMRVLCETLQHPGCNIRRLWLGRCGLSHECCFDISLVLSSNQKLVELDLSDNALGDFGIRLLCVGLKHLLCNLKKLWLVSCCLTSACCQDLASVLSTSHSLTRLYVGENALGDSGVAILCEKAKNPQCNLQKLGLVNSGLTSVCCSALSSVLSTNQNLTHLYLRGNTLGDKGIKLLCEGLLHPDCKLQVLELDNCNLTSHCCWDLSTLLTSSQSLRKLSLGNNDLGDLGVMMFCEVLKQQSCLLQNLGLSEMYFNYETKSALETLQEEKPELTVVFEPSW

T1 sequence (P08183 whole entry, species assumed): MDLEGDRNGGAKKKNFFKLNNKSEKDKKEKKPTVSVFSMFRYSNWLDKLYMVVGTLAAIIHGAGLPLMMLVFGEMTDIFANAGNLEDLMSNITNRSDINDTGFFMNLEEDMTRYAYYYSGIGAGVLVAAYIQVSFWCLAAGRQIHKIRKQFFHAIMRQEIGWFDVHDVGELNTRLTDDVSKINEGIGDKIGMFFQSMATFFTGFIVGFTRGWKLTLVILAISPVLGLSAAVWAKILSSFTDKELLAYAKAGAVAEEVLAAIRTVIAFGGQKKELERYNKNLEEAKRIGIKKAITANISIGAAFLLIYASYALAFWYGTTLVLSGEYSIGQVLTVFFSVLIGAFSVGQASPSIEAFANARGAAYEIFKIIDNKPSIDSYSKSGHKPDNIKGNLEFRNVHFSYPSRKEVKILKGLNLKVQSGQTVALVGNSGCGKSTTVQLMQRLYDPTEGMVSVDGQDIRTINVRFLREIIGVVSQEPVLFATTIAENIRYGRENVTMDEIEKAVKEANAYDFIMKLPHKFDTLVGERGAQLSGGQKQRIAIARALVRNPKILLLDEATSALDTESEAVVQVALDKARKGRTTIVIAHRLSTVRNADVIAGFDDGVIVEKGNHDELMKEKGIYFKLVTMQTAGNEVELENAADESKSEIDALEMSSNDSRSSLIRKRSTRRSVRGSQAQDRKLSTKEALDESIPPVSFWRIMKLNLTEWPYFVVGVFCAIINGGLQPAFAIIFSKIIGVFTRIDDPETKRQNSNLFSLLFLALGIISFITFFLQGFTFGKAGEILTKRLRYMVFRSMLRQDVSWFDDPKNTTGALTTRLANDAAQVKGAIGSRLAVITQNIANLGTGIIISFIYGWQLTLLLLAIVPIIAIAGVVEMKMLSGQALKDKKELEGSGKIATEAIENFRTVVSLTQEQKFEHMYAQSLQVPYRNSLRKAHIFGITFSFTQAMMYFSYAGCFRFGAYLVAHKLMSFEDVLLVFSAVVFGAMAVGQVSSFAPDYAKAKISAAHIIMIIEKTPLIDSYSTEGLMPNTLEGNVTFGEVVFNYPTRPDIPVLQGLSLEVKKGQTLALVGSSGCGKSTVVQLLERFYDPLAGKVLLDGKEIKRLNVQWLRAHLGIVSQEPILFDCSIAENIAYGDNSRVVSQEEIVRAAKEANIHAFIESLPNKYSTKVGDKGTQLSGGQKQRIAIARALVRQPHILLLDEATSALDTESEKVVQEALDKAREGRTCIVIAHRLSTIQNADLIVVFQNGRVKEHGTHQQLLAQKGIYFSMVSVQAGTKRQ

As to `CN1CCC[C@@H](Nc2nnc(-c3ccccc3O)c3c2COCC3)C1` [Example 226, (R)-2-(4-((1-methylpiperidin-3-yl)amino)-7,8-dihydro-5H-pyrano[3,4-d]pyridazin-1-yl)phenol], the results for the half-maximal inhibitory concentration (IC50) in the data set on NF-κB pathway and on NLRP3 inflammasome were above 30000 nM and 9 nM, respectively. For the same compound, the efflux ratio at 60 min, 1 µM at MDR1 (P-gp) came out at 21. Moreover, on MDR1 (P-gp), the Papp A→B at 60 min, 1 µM came out at 1.3 ×10⁻⁶ cm/s.
For `Cc1ccc(-c2nnc(N[C@@H]3CCCN(C)C3)c3c2CCOC3)c(O)c1` [Example 218, (R)-5-methyl-2-(4-((1-methylpiperidin-3-yl)amino)-7,8-dihydro-5H-pyrano[3,4-d]pyridazin-1-yl)phenol], in that order: above 30000 nM, 2 nM, 26 and 1.2 ×10⁻⁶ cm/s.
For `COc1ccc(-c2nnc(N[C@@H]3CCCN(C)C3)c3c2CCOC3)c(O)c1` [Example 221, (R)-5-methoxy-2-(4-((1-methylpiperidin-3-yl)amino)-7,8-dihydro-5H-pyrano[3,4-d]pyridazin-1-yl)phenol], in that order: above 30000 nM, 3 nM, 30 and 1 ×10⁻⁶ cm/s.
For `CN1C[C@H](F)C[C@@H](Nc2nnc(-c3ccc(C4CC4)cc3O)c3c2COCC3)C1` [Example 238, 5-cyclopropyl-2-(4-(((3R,5R)-5-fluoro-1-methylpiperidin-3-yl)amino)-7,8-dihydro-5H-pyrano[3,4-d]pyridazin-1-yl)phenol], in that order: above 30000 nM, 5 nM, 41 and 0.6 ×10⁻⁶ cm/s.
As to `Cc1ccc(-c2nnc(N[C@@H]3C[C@@H](F)CN(C)C3)c3c2COCC3)c(O)c1` [Example 201, 2-(1-(((3R,5R)-5-fluoro-1-methylpiperidin-3-yl)amino)-7,8-dihydro-5H-pyrano[3,4-d]pyridazin-4-yl)-5-methylphenol], the 50% inhibitory concentration (IC50) in the data set with NF-κB pathway is above 30000 nM. At MDR1 (P-gp), the efflux ratio at 60 min, 1 µM was determined as 17 and the apical-to-basolateral permeability (Papp A→B) at 60 min, 1 µM amounted to 1.7 ×10⁻⁶ cm/s. Also, inhibition at NLRP3 inflammasome was half-maximal at 10 nM (IC50).
For `Cc1ccc(-c2nnc(N[C@@H]3CCCC[C@H]3O)c3c2COCC3)c(O)c1` [Example 230, 2-(1-(((1R,2R)-2-hydroxycyclohexyl)amino)-7,8-dihydro-5H-pyrano[3,4-d]pyridazin-4-yl)-5-methylphenol], in that order: above 10000 nM, 7, 1.3 ×10⁻⁶ cm/s and 121 nM.
For `CN1C[C@H](F)C[C@@H](Nc2nnc(-c3ccc(C(F)(F)F)cc3O)c3c2COCC3)C1` [Example 234, 2-(4-(((3R,5R)-5-fluoro-1-methylpiperidin-3-yl)amino)-7,8-dihydro-5H-pyrano[3,4-d]pyridazin-1-yl)-5-(trifluoromethyl)phenol], in that order: above 30000 nM, 12, 1.5 ×10⁻⁶ cm/s and 6 nM.
For `Cc1ccc(-c2nnc(N[C@@H]3C[C@@H](F)CN(C)C3)c3c2CCOC3)c(O)c1` [Example 220, 2-(4-(((3R,5R)-5-fluoro-1-methylpiperidin-3-yl)amino)-7,8-dihydro-5H-pyrano[3,4-d]pyridazin-1-yl)-5-methylphenol], in that order: above 30000 nM, 9, 1.5 ×10⁻⁶ cm/s and 8 nM.
Consider `CN1C[C@H](F)C[C@@H](Nc2nnc(-c3ccccc3O)c3c2COCC3)C1` [Example 213, 2-(4-(((3R,5R)-5-fluoro-1-methylpiperidin-3-yl)amino)-7,8-dihydro-5H-pyrano[3,4-d]pyridazin-1-yl)phenol], for which, in the data set with NF-κB pathway, the concentration for half-maximal inhibition (IC50) is above 30000 nM. In addition, on MDR1 (P-gp), the efflux ratio at 60 min, 1 µM was 14 and the apical-to-basolateral permeability (Papp A→B) at 60 min, 1 µM came to 3.1 ×10⁻⁶ cm/s. Further, on NLRP3 inflammasome, the midpoint of inhibition, the IC50, lay at 28 nM.
For `Cc1ccc(-c2nnc(N[C@@H]3CCCC[C@H]3O)c3c2CCOC3)c(O)c1` [Example 229, 2-(4-(((1R,2R)-2-hydroxycyclohexyl)amino)-7,8-dihydro-5H-pyrano[3,4-d]pyridazin-1-yl)-5-methylphenol], in that order: above 10000 nM, 6, 1 ×10⁻⁶ cm/s and 36 nM.
For `CN1C[C@H](F)C[C@@H](Nc2nnc(-c3ccc(OC(F)(F)F)cc3O)c3c2COCC3)C1` [Example 236, 2-(4-(((3R,5R)-5-fluoro-1-methylpiperidin-3-yl)amino)-7,8-dihydro-5H-pyrano[3,4-d]pyridazin-1-yl)-5-(trifluoromethoxy)phenol], in that order: above 30000 nM, 10, 2.2 ×10⁻⁶ cm/s and 7 nM.
For `COc1ccc(-c2nnc(N[C@@H]3C[C@@H](F)CN(C)C3)c3c2CCOC3)c(O)c1` [Example 237, 2-(4-(((3R,5R)-5-fluoro-1-methylpiperidin-3-yl)amino)-7,8-dihydro-5H-pyrano[3,4-d]pyridazin-1-yl)-5-methoxyphenol], in that order: above 30000 nM, 10, 1.6 ×10⁻⁶ cm/s and 11 nM.
For the compound `COCCN1CCC[C@@H](Nc2nnc(-c3ccc(C)cc3O)c3c2COCC3)C1` [Example 233, (R)-2-(4-((1-(2-methoxyethyl)piperidin-3-yl)amino)-7,8-dihydro-5H-pyrano[3,4-d]pyridazin-1-yl)-5-methylphenol], the concentration for half-maximal inhibition (IC50) with NF-κB pathway was above 30000 nM. In addition, on MDR1 (P-gp), the efflux ratio at 60 min, 1 µM came to 25 and the Papp A→B at 60 min, 1 µM came out at 2 ×10⁻⁶ cm/s. For the same compound, half-maximal inhibition against NLRP3 inflammasome (IC50) required 155 nM.
`CN1C[C@H](F)C[C@@H](Nc2nnc(-c3ccc(Cl)cc3O)c3c2COCC3)C1` [Example 212, 5-chloro-2-(4-(((3R,5R)-5-fluoro-1-methylpiperidin-3-yl)amino)-7,8-dihydro-5H-pyrano[3,4-d]pyridazin-1-yl)phenol]: the values for the IC50 with NF-κB pathway and against NLRP3 inflammasome were above 30000 nM and 2 nM, respectively. The efflux ratio at 60 min, 1 µM at MDR1 (P-gp) is 9. In addition, the Papp A→B at 60 min, 1 µM on MDR1 (P-gp) was 2.1 ×10⁻⁶ cm/s.
`CN1C[C@H](F)C[C@@H](Nc2nnc(-c3ccc(F)cc3O)c3c2COCC3)C1` [Example 219, 5-fluoro-2-(4-(((3R,5R)-5-fluoro-1-methylpiperidin-3-yl)amino)-7,8-dihydro-5H-pyrano[3,4-d]pyridazin-1-yl)phenol]: the IC50 in the data set with NF-κB pathway was above 30000 nM. On MDR1 (P-gp), the efflux ratio at 60 min, 1 µM was 13 and the apparent permeability from apical to basolateral (Papp A→B) at 60 min, 1 µM stood at 4.7 ×10⁻⁶ cm/s. The same compound had a concentration for half-maximal inhibition (IC50) at NLRP3 inflammasome of 8 nM.
For `CN1CCC[C@@H](Nc2nnc(-c3ccc(Cl)cc3O)c3c2COCC3)C1` [Example 225, (R)-5-chloro-2-(4-((1-methylpiperidin-3-yl)amino)-7,8-dihydro-5H-pyrano[3,4-d]pyridazin-1-yl)phenol], in that order: above 30000 nM, 22, 1.5 ×10⁻⁶ cm/s and 2 nM.
For `CN1C[C@H](F)C[C@@H](Nc2nnc(-c3ccc(C(F)F)cc3O)c3c2COCC3)C1` [Example 239, 5-(difluoromethyl)-2-(4-(((3R,5R)-5-fluoro-1-methylpiperidin-3-yl)amino)-7,8-dihydro-5H-pyrano[3,4-d]pyridazin-1-yl)phenol], in that order: above 30000 nM, 39, 1.2 ×10⁻⁶ cm/s and 11 nM.

The values are drawn from patent publication US20250340563A1, “FUSED PYRIDAZINE DERIVATIVES AS NLRP3 INHIBITORS” (Takeda Pharmaceutical Company Limited, priority 2022, published 2025).
